In experiment [1] the test system is PC3 prostate cancer cells. Nature of the experiment: cells. As to conditions: Homo sapiens, PC-3, 48 h, read-out: IC50 PC3.
The test system of experiment [2] is HCT-15 human colon cancer cells. Briefly: cells. Conditions: HCT-15, 48 h, read-out: IC50 HCT-15.
Procedure: Cells are incubated for 48 hr with different equivalent doxorubicin concentrations and IC50 values in terms of doxorubicin were calculated using MTT assay.
Another experiment concerns PC3 cells. Briefly: MTT cytotoxicity assay of lupeol and dendrimer-lupeol conjugates. It counts as cell-based. Conditions: Homo sapiens, PC-3, 48 h, read-out: percentage inhibition (cytotoxic effect, MTT). On the procedure: Human prostate cancer cells (PC-3 cells) are obtained from NCCS, Pune, India. The cells are grown in RPMI 1640 medium supplemented with 10% of bovine fetal serum and antibiotics (100 IU of penicillin/[…] of streptomycin). The cells are maintained in a 25 cm^2 T-flask and incubated at 37° C. under 5% CO2 in a humidified atmosphere. The cell viability is measured by staining the cells with trypan blue and counted in a haemocytometer under a light microscope.
The assay is performed in triplicates.
The cytotoxicity is quantitatively estimated by a non-radioactive, colorimetric assay system using a tetrazolium salt, 3-[4,5-dimethylthiazol-2-yl]-2,5-diphenil-tetrazolium bromide (MTT).
The cytotoxic effect of lupeol and the dendrimer lupeol conjugate is determined using PC3 cells. […] Doxorubicin is used as positive control for each experiment. […] This clearly showcases that the increase in cytotoxic activity of the dendrimer-lupeol conjugate is not due to the dendrimer or lupeol alone but because of the conjugate of dendrimer and lupeol.

Each structure is given as a SMILES string. In brackets after ≈: the same amount, converted by molar mass.

Regarding `COc1cccc2c1C(=O)c1c(O)c3c(c(O)c1C2=O)C[C@@](O)(C(=O)CO)C[C@@H]3O[C@H]1C[C@H](N)[C@H](O)[C@H](C)O1` [Free doxorubicin, doxorubicin], the IC50 in experiment [1] turned out to be 5.13 µg/mL (≈ 9.45 µM); in experiment [2] it was 4.77 µg/mL (≈ 8.78 µM).
For the compound `C=C(C)[C@@H]1CC[C@]2(C)CC[C@]3(C)[C@H](CC[C@@H]4[C@@]5(C)CC[C@H](O)C(C)(C)[C@@H]5CC[C@]43C)[C@@H]12` [free lupeol, lupeol], the inhibition at 10 µg/mL in the experiment with PC3 cells worked out at 7.74%.

Source of the values: patent publication US9700632B2, “Dendrimers, conjugates and methods thereof” (Centre for BioSeparation Technology—VIT, priority 2012, dated 2017).
